Test results published in PubChem BioAssay AID2060895 (Molecular Pharmacology Branch, DTP, NCI, 2025).
pIC50: −log10 of the molar value. Each block holds one molecule with its values, some of them ahead of it.

Tested on: PDC 899932-113-R3-J6 complex spheroid viability
Test: Anticancer human tumor 899932-113-R3-J6-PDC patient-derived melanoma cell line growth inhibition [RAS]
Details: for pIC50: curve of first compound; for viability, T/C: stronger effect = lower value
Description: RAS pathway inhibitors in Combinations in Complex Spheroids
A high-throughput screen of multi-cell type tumor spheroids was designed to identify active combinations of RAS pathway inhibitors and targeted small molecules. Complex spheroids include a stromal component modeled by human endothelial cells (HUVEC) and fibroblasts modeled by human mesenchymal stem cells (MSCs). The concentration ranges selected for each drug and investigational agent were based upon clinically achievable concentrations if the clinical Cmax of the agent was known.
Compounds. The drugs and investigational agents: abemaciclib (NSC768073), cobimetinib (NSC768068), divarasib (GDC6063, NSC841802), docetaxel (NSC628503), GDC-1971 (RLY-1971, NSC841576), gemcitabine (NSC613327), inavolisib (NSC800729), ipatasertib (NSC767898), KB-0742 (NSC834161), MRTX-1133 (NSC836407), osimertinib (NSC779217), RMC-4630 (NSC839698), RMC-6236 (NSC851965), RMC-6291 (NSC852671), Ro-3306 (NSC812927), sapanisertib (NSC764658), SN-38 (NSC673596), staurosporine (NSC755774), SY5609 (NSC837396), and tovorafenib (DAY101, NSC766906), were obtained from the National Cancer Institute (NCI) Developmental Therapeutics Program Chemical Repository. The FDA-approved anticancer drug set is available from the NCI Developmental Therapeutics Program. […] The stock solutions were prepared in dimethyl sulfoxide (DMSO, Sigma-Aldrich, St. Louis, MO, cat. D2650) at 800-fold the tested concentration and stored at -70 degrees C prior to their use. All drugs and investigational agents were tested over a range starting from a high concentration at or near the clinical Cmax and decreasing in half-log increments. If the clinical Cmax for an agent had not been determined, the highest concentration tested was 10 microM.
Cell Culture. All cells were maintained in an incubator at 37 degrees C and 5% CO2 with 95% humidity. The PDC lines were cultured according to standard operating procedures established by the NCI PDMR. All PDCs were thawed and cultured in Matrigel-coated flasks prepared with a working solution of 1X Ham's F-12 nutrient mix, without supplementation (Invitrogen, Waltham, MA, cat. 11765054), 100 U/mL penicillin-streptomycin (Invitrogen, cat. 15140122), and 2.5% Matrigel (Corning Inc., Corning, NY, cat. 354248) for the first three passages. The 362531-283-R-J2-PDC and 782815-120-R-J1-PDC lines were cultured in 6C/Colon 1B media, which includes advanced DMEM/F-12 (Thermo Fisher Scientific, cat. 12634028), 10 mM HEPES (Thermo Fisher Scientific, cat. 15630080), 1X GlutaMAX supplement (Thermo Fisher Scientific, cat. 35050061), 0.1 mg/mL primocin (InvivoGen, San Diego, CA, cat. ant-pm-2), 10% defined fetal bovine serum, heat inactivated (HyClone Laboratories Inc., Logan, UT, cat. SH30070.03HI), 50% L-WRN conditioned media (ATCC, cat. CRL-3276), 1.25 mM N-Acetyl-L-cysteine (Sigma-Aldrich, cat. A9165), 10 mM nicotinamide (Sigma-Aldrich, cat. N0636), 1X B-27 supplement (Thermo Fisher Scientific, cat. 17504044), 1X N-2 supplement (Thermo Fisher Scientific, cat. 17502048), 50 ng/mL human EGF (Thermo Fisher Scientific, cat. PHG0311), and 10 microM Y-27632 dihydrochloride (Tocris Bioscience, cat. 1254). The K12877-001-R-J1-PDC line was cultured in 6I media, which includes all 6C/Colon 1B media plus 10 ng/mL human FGF-10 (PeproTech, cat. 100-26), 1 ng/mL human FGF-2 (PeproTech, cat. 100-18B), 1 µM prostaglandin E2 (Tocris Bioscience, cat. 2296), […] hydrocortisone (Sigma-Aldrich, cat. H4001), and […] bovine insulin (Sigma-Aldrich, cat. I6634). The K86415-001-R-J1-PDC line was cultured in 6D media, which includes all 6C/Colon 1B media components minus the L-WRN conditioned media. The 485176-168-R4-J1-PDC was cultured in PANC media, which includes all 6C/Colon 1B media plus 100 ng/mL human FGF-10 (PeproTech, cat. 100-26), 500 nM SB-431542 (Selleckchem, cat. S1067), and 10 nM gastrin (Tocris Bioscience, cat. 3006). […]

[1] = second compound 0.0316 µM, first compound 0.0316 µM
[2] = second compound 0.0316 µM, first compound 0.1 µM
[3] = second compound 0.0316 µM, first compound 0.316 µM
[4] = second compound 0.0316 µM, first compound 1 µM
[5] = second compound 0.0316 µM, first compound 3.16 µM
[6] = second compound 0.0316 µM, first compound 10 µM
[7] = second compound 0.1 µM, first compound 0.0316 µM
[8] = second compound 0.1 µM, first compound 0.1 µM
[9] = second compound 0.1 µM, first compound 0.316 µM
[10] = second compound 0.1 µM, first compound 1 µM
[11] = second compound 0.1 µM, first compound 3.16 µM
[12] = second compound 0.1 µM, first compound 10 µM
[13] = second compound 0.316 µM, first compound 0.0316 µM
[14] = second compound 0.316 µM, first compound 0.1 µM
[15] = second compound 0.316 µM, first compound 0.316 µM
[16] = second compound 0.316 µM, first compound 1 µM
[17] = second compound 0.316 µM, first compound 3.16 µM
[18] = second compound 0.316 µM, first compound 10 µM
[19] = second compound 1 µM, first compound 0.0316 µM
[20] = second compound 1 µM, first compound 0.1 µM
[21] = second compound 1 µM, first compound 0.316 µM
[22] = second compound 1 µM, first compound 1 µM
[23] = second compound 1 µM, first compound 3.16 µM
[24] = second compound 1 µM, first compound 10 µM
[25] = second compound 3.16 µM, first compound 0.0316 µM
[26] = second compound 3.16 µM, first compound 0.1 µM
[27] = second compound 3.16 µM, first compound 0.316 µM
[28] = second compound 3.16 µM, first compound 1 µM
[29] = second compound 3.16 µM, first compound 3.16 µM
[30] = second compound 3.16 µM, first compound 10 µM
[31] = second compound 10 µM, first compound 0.0316 µM
[32] = second compound 10 µM, first compound 0.1 µM
[33] = second compound 10 µM, first compound 0.316 µM
[34] = second compound 10 µM, first compound 1 µM
[35] = second compound 10 µM, first compound 3.16 µM
[36] = second compound 10 µM, first compound 10 µM
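For viability, T/C in this document: spheroids exposed to agents for seven days before readout; 100% = DMSO vehicle control wells.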

pIC50 (second compound 0.0316 µM): 5.61
pIC50 (second compound 0.1 µM): 5.59
pIC50 (second compound 0.316 µM): 5.49
pIC50 (second compound 1 µM): 5.46
pIC50 (second compound 3.16 µM): 5.52
pIC50 (second compound 10 µM): 5.51
Compound: CC1(O)CCCC1n1c(=O)c(C(F)F)cc2cnc(NC3CCN(S(C)(=O)=O)CC3)nc21 (stereo unspecified) + C#Cc1c(F)ccc2cc(O)cc(-c3ncc4c(N5CC6CCC(C5)N6)nc(OCC56CCCN5CC(F)C6)nc4c3F)c12
viability, T/C [1]: 105%
viability, T/C [2]: 81.1%
viability, T/C [3]: 70.8%
viability, T/C [4]: 69.9%
viability, T/C [5]: 54.9%
viability, T/C [6]: 21.6%
viability, T/C [7]: 96.2%
viability, T/C [8]: 86.9%
viability, T/C [9]: 63.6%
viability, T/C [10]: 62.3%
viability, T/C [11]: 62%
viability, T/C [12]: 24.5%
viability, T/C [13]: 99.2%
viability, T/C [14]: 93%
viability, T/C [15]: 75.9%
viability, T/C [16]: 65.3%
viability, T/C [17]: 56.6%
viability, T/C [18]: 25.5%
viability, T/C [19]: 102%
viability, T/C [20]: 89.7%
viability, T/C [21]: 76.3%
viability, T/C [22]: 70%
viability, T/C [23]: 58.4%
viability, T/C [24]: 24.7%
viability, T/C [25]: 114%
viability, T/C [26]: 97.8%
viability, T/C [27]: 69.8%
viability, T/C [28]: 72.2%
viability, T/C [29]: 62.4%
viability, T/C [30]: 22.2%
viability, T/C [31]: 114%
viability, T/C [32]: 89%
viability, T/C [33]: 77.2%
viability, T/C [34]: 68.8%
viability, T/C [35]: 64.8%
viability, T/C [36]: 11.3%

pIC50 (second compound 0.0316 µM): 6.30
pIC50 (second compound 0.1 µM): 6.28
pIC50 (second compound 0.316 µM): 6.28
pIC50 (second compound 1 µM): 6.31
pIC50 (second compound 3.16 µM): 6.28
pIC50 (second compound 10 µM): 6.51
Compound: CCN1CCN(Cc2ccc(Nc3ncc(F)c(-c4cc(F)c5nc(C)n(C(C)C)c5c4)n3)nc2)CC1 + C#Cc1c(F)ccc2cc(O)cc(-c3ncc4c(N5CC6CCC(C5)N6)nc(OCC56CCCN5CC(F)C6)nc4c3F)c12
viability, T/C (second compound 0.0316 µM, first compound 0.00316 µM): 105%
viability, T/C (second compound 0.0316 µM, first compound 0.01 µM): 97.1%
viability, T/C [1]: 98.9%
viability, T/C [2]: 83.4%
viability, T/C [3]: 69.8%
viability, T/C [4]: 23.9%
viability, T/C (second compound 0.1 µM, first compound 0.00316 µM): 109%
viability, T/C (second compound 0.1 µM, first compound 0.01 µM): 102%
viability, T/C [7]: 92.9%
viability, T/C [8]: 87%
viability, T/C [9]: 68.9%
viability, T/C [10]: 28.3%
viability, T/C (second compound 0.316 µM, first compound 0.00316 µM): 116%
viability, T/C (second compound 0.316 µM, first compound 0.01 µM): 92.8%
viability, T/C [13]: 94%
viability, T/C [14]: 92.7%
viability, T/C [15]: 69%
viability, T/C [16]: 26.5%
viability, T/C (second compound 1 µM, first compound 0.00316 µM): 115%
viability, T/C (second compound 1 µM, first compound 0.01 µM): 112%
viability, T/C [19]: 98.7%
viability, T/C [20]: 81.6%
viability, T/C [21]: 67.1%
viability, T/C [22]: 27.8%
viability, T/C (second compound 3.16 µM, first compound 0.00316 µM): 126%
viability, T/C (second compound 3.16 µM, first compound 0.01 µM): 112%
viability, T/C [25]: 100%
viability, T/C [26]: 86.2%
viability, T/C [27]: 71.4%
viability, T/C [28]: 28.5%
viability, T/C (second compound 10 µM, first compound 0.00316 µM): 125%
viability, T/C (second compound 10 µM, first compound 0.01 µM): 113%
viability, T/C [31]: 100%
viability, T/C [32]: 84.4%
viability, T/C [33]: 48.4%
viability, T/C [34]: 3.09%

pIC50 (second compound 0.0316 µM): 5.18
pIC50 (second compound 0.1 µM): 5.17
pIC50 (second compound 0.316 µM): 5.16
pIC50 (second compound 1 µM): 5.13
pIC50 (second compound 3.16 µM): 5.11
pIC50 (second compound 10 µM): 5.21
Compound: C[C@@H](NC(=O)c1ncnc(N)c1Cl)c1ncc(C(=O)Nc2cc(C(F)(F)F)c(Cl)cn2)s1 + C#Cc1c(F)ccc2cc(O)cc(-c3ncc4c(N5CC6CCC(C5)N6)nc(OCC56CCCN5CC(F)C6)nc4c3F)c12
viability, T/C [1]: 120%
viability, T/C [2]: 151%
viability, T/C [3]: 149%
viability, T/C [4]: 150%
viability, T/C [5]: 99.2%
viability, T/C [6]: 22.1%
viability, T/C [7]: 130%
viability, T/C [8]: 133%
viability, T/C [9]: 153%
viability, T/C [10]: 151%
viability, T/C [11]: 94.5%
viability, T/C [12]: 27.2%
viability, T/C [13]: 132%
viability, T/C [14]: 123%
viability, T/C [15]: 145%
viability, T/C [16]: 140%
viability, T/C [17]: 94.2%
viability, T/C [18]: 28.7%
viability, T/C [19]: 138%
viability, T/C [20]: 139%
viability, T/C [21]: 158%
viability, T/C [22]: 151%
viability, T/C [23]: 99.2%
viability, T/C [24]: 32.5%
viability, T/C [25]: 124%
viability, T/C [26]: 150%
viability, T/C [27]: 155%
viability, T/C [28]: 172%
viability, T/C [29]: 117%
viability, T/C [30]: 30.7%
viability, T/C [31]: 136%
viability, T/C [32]: 145%
viability, T/C [33]: 154%
viability, T/C [34]: 166%
viability, T/C [35]: 91.6%
viability, T/C [36]: 20.5%
